Source: publication PMC11414412, “Design and synthesis new indole-based aromatase/iNOS inhibitors with apoptotic antiproliferative activity” (Frontiers in Chemistry, 2024)

What was measured:
HT-29 cells = assay: Antiproliferative assay, HT-29; type: cell-based; details: Homo sapiens; HT-29 colon cancer cell line; read-out: Antiproliferative activity IC50 ± SEM, HT-29
Experimental: (§1) 4.2.2. Assay for antiproliferative effect
(§2) To explore the antiproliferative potential of compounds propidium iodide fluorescence assay was performed using different cell lines such as Panc-1 (pancreas cancer cell line), MCF-7 (breast cancer cell line), HT-29 (colon cancer cell line) and A-549 (epithelial cancer cell line), respectively. To calculate the total nuclear DNA, a fluorescent dye (propidium iodide, PI) is used which can attach to the DNA, thus offering a quick and precise technique. PI cannot pass through the cell membrane and its signal intensity can be considered as directly proportional to quantity of cellular DNA. Cells whose cell membranes are damaged or have changed permeability are counted as dead ones. The assay was performed by seeding the cells of different cell lines at a density of 3000-7500 cells/well (in200μl medium) in culture plates followed by incubation for 24h at 37 °C in humidified 5%CO2/95% air atmospheric conditions. The medium was removed; the compounds were added to the plates at 10 μM concentrations (in 0.1% DMSO) in triplicates, followed by incubation for 48h. DMSO (0.1%) was used as control. After incubation, medium was removed followed by the addition of PI (25 μl, 50μg/mL in water/medium) to each well of the plates. At - 80 °C, the plates were allowed to freeze for 24 h, followed by thawing at 25 °C. A fluorometer (Polar-Star BMG Tech) was used to record the readings at excitation and emission wavelengths of 530 and 620 nm for each well. The percentage cytotoxicity of compounds was calculated using […]
(§3) Where ATC= Absorbance of treated cells and AC= Absorbance of control. Erlotinib was used as positive control in the assay.

Panc-1 cells = assay: Antiproliferative assay, Panc-1; type: cell-based; details: Homo sapiens; Panc-1 pancreatic cancer cell line; read-out: Antiproliferative activity IC50 ± SEM, Panc-1
Experimental: as §1, §2, §3

[1] = test system: four human cancer cell lines (A-549, MCF-7, Panc-1, HT-29); assay: Antiproliferative assay, average over four cancer cell lines (GI50); type: cell-based; details: for IC50: Homo sapiens, average of IC50 against A-549, MCF-7, Panc-1, HT-29
Experimental: See Supplementary Appendix SA1 for more details.
as §1
To explore the antiproliferative potential of compounds propidium iodide fluorescence assay was performed using different cell lines such as Panc-1 (pancreas cancer cell line), MCF-7 (breast […]
respectively. To calculate the total nuclear DNA, a fluorescent dye (propidium iodide, PI) is used which can attach to the DNA, thus offering a quick and precise technique. PI cannot pass through the cell membrane and its signal intensity can be considered as directly proportional to quantity of cellular DNA. Cells whose cell membranes are damaged or have changed permeability are counted as dead ones. The assay was performed by seeding the cells of different cell lines at a density of […]
The medium was removed; the compounds were added to the plates at 10 μM concentrations (in 0.1% DMSO) in triplicates, followed by incubation for 48h. DMSO (0.1%) was used as control. After incubation, medium was removed followed by the addition of PI (25 μl, 50μg/mL in water/medium) to each well of the plates. At - 80 °C, the plates were allowed to freeze for 24 h, followed by thawing at 25 °C. A fluorometer (Polar-Star BMG Tech) was used to record the readings at excitation and emission wavelengths of 530 and 620 nm for each well. The percentage cytotoxicity of compounds was calculated using […]
Where ATC= Absorbance of treated cells and AC= Absorbance of control. […]
positive control in the assay.

A-549 cells = assay: Antiproliferative assay, A-549; type: cell-based; details: Homo sapiens, A549; A-549 lung cancer cell line; read-out: Antiproliferative activity IC50 ± SEM, A-549
Experimental: as §1, §2, §3

MCF-7 cells = assay: Antiproliferative assay, MCF-7; type: cell-based; details: Homo sapiens, MCF7; MCF-7 breast cancer cell line; read-out: Antiproliferative activity IC50 ± SEM, MCF-7
Experimental: as §1, §2, §3

[2] = Cell viability assay (MTT) on normal mammary epithelial cells; type: cell-based, human; details: human, MCF-10A normal mammary gland epithelial cells, MCF-10A normal cells, 4 days incubation
Experimental: This test investigates the effects of the new compounds 3–16 on normal cell lines to determine their safety. The normal human mammary gland epithelial (MCF-10 A) cell line was used to test the viability of the tested compounds. After 4 days of incubation on MCF-10 A cells within 50 µM of each investigated compound, cell viability was determined using the MTT assay ([Gomaa et al., 2020]; [Marzouk et al., 2020]).
The normal human mammary gland epithelial (MCF-10A) cell line was used to test the viability of the tested compounds. After 4 days of incubation on MCF-10A cells within 50 µM of each investigated compound, cell viability was determined using the MTT assay ([Gomaa et al., 2020]; [Marzouk et al., 2020]). Refer to Supplementary Appendix SA1 (supp. File) for more details.
4.2. Biological evaluation
4.2.1 Cell Viability assay (MTT assay)
MTT assay was performed to investigate the effect of the synthesized compounds on mammary epithelial cells (MCF-10A). The cells were propagated in medium consisting of Ham's F-12 medium/ Dulbecco's modified Eagle's medium (DMEM) (1:1) supplemented with 10% foetal calf serum, 2 mM glutamine, insulin (10 μg/mL), hydrocortisone (500 ng/mL) and epidermal growth factor (20 ng/mL). Trypsin ethylenediamine tetra acetic acid (EDTA) was used to passage the cells after every 2-3 days. 96-well flat-bottomed cell culture plates were used to seed the cells at a density of 10^4 cells mL-1. The medium was aspirated from all the wells of culture plates after 24 h followed by the addition of synthesized compounds (in 200 μL medium to yield a final concentration of 0.1% (v/v) dimethyl sulfoxide) into individual wells of the plates. Four wells were designated to a single compound. The plates were allowed to incubate at 37°C for 96 h. Afterwards, the medium was aspirated and 3-[4,5-dimethylthiazol-2-yl]-2,5-diphenyltetrazolium bromide (MTT) (0.4 mg/mL) in medium was added to each well and subsequently incubated for 3 h. The medium was aspirated and 150 μL dimethyl sulfoxide (DMSO) was added to each well. The plates were vortexed followed by the measurement of absorbance at 540 nm on a microplate reader. The results were presented as inhibition (%) of proliferation in contrast to controls comprising 0.1%

aromatase (CYP19) = target: T1, aromatase (CYP19) (Homo sapiens, UniProt P11511); assay: Aromatase inhibitory assay (Gentest kit, DBF fluorometric substrate)
T1 sequence (P11511 1-503): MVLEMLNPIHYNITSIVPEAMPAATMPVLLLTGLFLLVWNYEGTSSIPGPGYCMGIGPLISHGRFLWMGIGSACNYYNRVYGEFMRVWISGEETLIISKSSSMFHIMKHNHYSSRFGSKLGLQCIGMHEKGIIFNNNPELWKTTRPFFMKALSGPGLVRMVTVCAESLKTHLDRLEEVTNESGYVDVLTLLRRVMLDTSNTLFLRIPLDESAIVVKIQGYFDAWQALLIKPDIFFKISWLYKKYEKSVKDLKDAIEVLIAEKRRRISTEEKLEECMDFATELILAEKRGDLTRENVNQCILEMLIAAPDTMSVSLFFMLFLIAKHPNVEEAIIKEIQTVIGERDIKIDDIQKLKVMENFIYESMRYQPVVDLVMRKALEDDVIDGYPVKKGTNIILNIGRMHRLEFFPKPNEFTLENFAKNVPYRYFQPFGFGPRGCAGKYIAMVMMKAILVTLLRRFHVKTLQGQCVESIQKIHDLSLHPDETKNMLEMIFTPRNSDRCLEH
Experimental: The aromatase inhibitory effect was performed using the method reported by Stressor et al.[35].
This method was carried out according to the Gentest kit using CYP19 enzyme and DBF as a
fluorometric substrate. DBF was dealkylated by aromatase and then hydrolyzed to give the
fluorescein product. Briefly, 100 μL of cofactor, containing 78.4 μL of 50 mM phosphate buffer
(pH 7.4); 20 μL of 20x NADPH-generating system (26 mM NADP+, 66 mM glucose-6-phosphate,
and 66 mM MgCl2); and 1.6 μL of 100 U/mL glucose-6-phosphate dehydrogenase, was pipetted
into a 96-well plate and preincubated in 37 °C (water bath) for 10 min. The reaction was initiated
by addition of 100 μL of enzyme/substrate mixture containing 77.3 μL of 50 mM
phosphate buffer (pH 7.4); 12.5 μL of 16 pmol/mL CYP19; 0.2 μL of 0.2 mM DBF, and 10 μL of
0.25 mM diluted tested sample or 10% DMSO as a negative control or letrozole as a positive
control. Fluorescence signal was recorded using an excitation wavelength of 490 nm and emission
Percentage of inhibition (%inhibition) was calculated
as shown in Equation (1).
assayed in triplicate. Finally, IC50 values were determined by plot of concentrations versus %

Row | SMILES | IC50 (HT-29 cells) | IC50 (Panc-1 cells) | IC50 [1] | IC50 (A-549 cells) | melting point | IC50 (MCF-7 cells) | viability at 4 days, 50 µM [2] | IC50 (aromatase (CYP19)) | Fold less potent than compound 12 (GI50) [1]
1 | CCc1c(C(=O)NC(C(=O)OC)c2ccccc2)[nH]c2ccc(Cl)cc12 (stereo not shown) [Compound 13, Methyl 2-(5-chloro-3-ethyl-1h-indole-2-carboxamido)-2-phenylacetate] | 34 ± 3 nM | 35 ± 3 nM | 35 nM | 34 ± 3 nM | 210 to 212 °C | 36 ± 3 nM | 91% | 28 ± 2 nM | –
2 | CCc1c2cc(Cl)ccc2n2c(C)c(C(=O)O)[nH]c(=O)c12 [Compound 6, 8-chloro-10-ethyl-4-methyl-1-oxo-1,2-dihydropyrazino [1,2-a]indole-3-carboxylic acid] | 66 ± 6 nM | 64 ± 6 nM | 66 nM | 65 ± 6 nM | 270 to 272 °C | 68 ± 6 nM | 92% | – | –
3 | CCc1c2n(c3ccc(Cl)cc13)C(O)C(Cc1ccccc1)NC2=O (stereo not shown) [Compound 10, 3-benzyl-8-chloro-10-ethyl-4-hydroxy-3,4-dihydropyrazino [1,2-a] indol-1(2H)-one] | 54 ± 5 nM | 54 ± 5 nM | 54 nM | 53 ± 5 nM | 160 to 162 °C | 56 ± 5 nM | 89% | – | –
4 | CCc1c2n(c3ccc(Cl)cc13)C(=O)C(c1ccccc1)NC2=O (stereo not shown) [Compound 14, 8-Chloro-10-ethyl-3-phenyl-2,3-dihydropyrazino [1,2-a] indole-1,4-dione] | 46 ± 4 nM | 44 ± 4 nM | 45 nM | 44 ± 4 nM | 202 to 204 °C | 46 ± 4 nM | 90% | – | –
5 | CCc1c(C(=O)NC(C(=O)OCc2ccccc2)C(C)O)[nH]c2ccc(Cl)cc12 (stereo not shown) [Compound 3, Benzyl 2-(5-chloro-3-ethyl-1H-indol-2-carboxamido)-3-hydroxybutanoate] | 60 ± 5 nM | 58 ± 5 nM | 59 nM | 57 ± 5 nM | – | 62 ± 5 nM | 91% | – | –
6 | CCc1c2cc(Cl)ccc2n2cc(Cc3ccccc3)[nH]c(=O)c12 [Compound 11, 3-Benzyl-8-chloro-10-ethylpyrazino[1,2-a]indol-1(2H)-one] | 42 ± 4 nM | 40 ± 4 nM | 41 nM | 40 ± 4 nM | – | 43 ± 4 nM | 92% | – | 1.7 fold
7 | CCc1c(C(=O)NC(C(C)=O)C(=O)OCc2ccccc2)[nH]c2ccc(Cl)cc12 (stereo not shown) [Compound 4, benzyl 2-(5-chloro-3-ethyl-1h-indol-2-carboxamido)-3-oxobutanoate] | 64 ± 6 nM | 60 ± 5 nM | 62 nM | 59 ± 5 nM | – | 65 ± 6 nM | 89% | – | –
8 | CCc1c2n(c3ccc(Cl)cc13)C(=O)C(Cc1ccccc1)NC2=O (stereo not shown) [Compound 9, 3-benzyl-8-chloro-10-ethyl-2,3-dihydropyrazino [1,2-a] indole-1,4-dione] | 50 ± 5 nM | 47 ± 4 nM | 49 nM | 48 ± 4 nM | 196 to 198 °C | 50 ± 4 nM | 91% | – | –
9 | CCc1c2n(c3ccc(Cl)cc13)C(O)C(c1ccccc1)NC2=O (stereo not shown) [Compound 15, 8-Chloro-10-ethyl-4-hydroxy-3-phenyl-3,4-dihydropyrazino [1,2-a] indol-1(2H)-one] | 74 ± 7 nM | 72 ± 7 nM | 72 nM | 69 ± 6 nM | 213 to 215 °C | 76 ± 7 nM | 92% | – | –
10 | CCOC(=O)C(Cc1ccccc1)NC(=O)c1[nH]c2ccc(Cl)cc2c1CC (stereo not shown) [Compound 8, ethyl 2-(5-chloro-3-ethyl-1h-indole-2-carboxamido)-3-phenylpropanoate] | 38 ± 3 nM | 37 ± 3 nM | 38 nM | 37 ± 3 nM | – | 40 ± 3 nM | 92% | 33 ± 3 nM | –
11 | C#Cc1cccc(Nc2ncnc3cc(OCCOC)c(OCCOC)cc23)c1 [Erlotinib, reference compound] | 30 ± 3 nM | 30 ± 3 nM | – | 30 ± 3 nM | – | 40 ± 3 nM | – | – | –
